# Measurements published in patent publication US12195469B2, “Compounds having PDE9A inhibitory activity, and pharmaceutical uses thereof” (KOREA RESEARCH INSTITUTE OF CHEMICAL TECHNOLOGY, priority 2018, dated 2025).
# Target: PDE9A (Homo sapiens (Human), UniProt O76083)
# Assay: PDE9A inhibition, fluorescence polarization assay (IMAP-FP screening express kit)
# Type: biochemical
# Settings: for IC50: Fl-cGMP substrate 100 nM, PDE9A 5 ng/ml, 1 hour at room temperature; for inhibition at 10 µM: 10 μM of the compound
# Procedure: The inhibitory activity of the representative compounds according to the present invention against phosphodiesterase 9A was tested based on the polarization assay (IMAP-FP screening express kit) provided by MDS (MDS Analytical Technologies, Sunyvale, CA, USA). As a buffer solution, a reaction solution (a reaction solution containing 0.01% Tween 20 provided by MDS was diluted 5 times, then 5 mM DTT is added) and a polarization detection solution (binding solution A and B provided by MDS were mixed at a ratio of 3:1 and IMAP binding reagent 1/600 was added) were prepared. 100 μM of the substrate (Fl-cGMP substrate; MDS) and 3.6 μg/ml of the enzyme PDE9A (ab54113; abcam) were prepared. 3.6 μg/ml PDE9A and 100 μM substrate were diluted to 20 ng/ml (final reaction concentration: 5 ng/ml) and 400 nM (final reaction concentration: 100 nM), respectively. The buffer solution used for all dilution and preparation processes was 1× reaction solution with 1 mM DTT added, and the polarization detection solution was used to induce polarization at the end.
# The prepared samples were dispensed on black microplates (Multiwell 384 well plates, #3573, Corning Life Sciences, Lowell, MA, USA) using a 16-channel pipette (multi 16-channel, Finnpipette, Thermo Scientific, Essex, UK). The total reaction volume per well is 20 μl. At this time, 10 μl of 2% DMSO, 5 μl of substrate solution, and 5 μl of reaction solution were used as a negative control, and 10 μl of 2% DMSO, 5 μl of substrate solution, and 5 μl of PDE9A solution were used as a positive control. As the experimental group, 10 μl of the compound prepared in Example, 5 μl of the substrate solution, and 5 μl of the PDE9A solution were used. After pretreatment between the compound and the enzyme was performed for about 10 minutes before the enzyme-substrate reaction, 5 μl of cGMP was added to induce the enzyme reaction. During the reaction, each compound, enzyme, and substrate occupied 50%, 25%, and 25% of the total volume, respectively, and they were prepared at high concentrations of 2, 4, and 4 times, respectively, immediately before addition. After the enzymatic reaction, it was shaken lightly for 1 minute and the enzyme reaction was induced at room temperature for 1 hour. Then, 60 μl of a polarization detection solution prepared in advance was added to induce polarization.
# Nanoparticles composed of trivalent metal ions are mixed in the fluorescence detection solution, which combines with phosphoric acid expose by enzymatic reaction to increase the molecular weight and induce polarization. After leaving for 2 hours at room temperature, the polarization (Fluorescence Polarization, FP) value was measured using a multilabel counter (Envision, PerkinElmer, Turku, Finland) (emission wavelength: P-535 nm, S-535 nm, excitation wavelength: 480 nm), and the result was expressed as an IC50 value, which is the concentration of the compound that inhibited PDE9A by 50% in vitro (Table 2).
# Sequence of PDE9A (O76083 whole entry): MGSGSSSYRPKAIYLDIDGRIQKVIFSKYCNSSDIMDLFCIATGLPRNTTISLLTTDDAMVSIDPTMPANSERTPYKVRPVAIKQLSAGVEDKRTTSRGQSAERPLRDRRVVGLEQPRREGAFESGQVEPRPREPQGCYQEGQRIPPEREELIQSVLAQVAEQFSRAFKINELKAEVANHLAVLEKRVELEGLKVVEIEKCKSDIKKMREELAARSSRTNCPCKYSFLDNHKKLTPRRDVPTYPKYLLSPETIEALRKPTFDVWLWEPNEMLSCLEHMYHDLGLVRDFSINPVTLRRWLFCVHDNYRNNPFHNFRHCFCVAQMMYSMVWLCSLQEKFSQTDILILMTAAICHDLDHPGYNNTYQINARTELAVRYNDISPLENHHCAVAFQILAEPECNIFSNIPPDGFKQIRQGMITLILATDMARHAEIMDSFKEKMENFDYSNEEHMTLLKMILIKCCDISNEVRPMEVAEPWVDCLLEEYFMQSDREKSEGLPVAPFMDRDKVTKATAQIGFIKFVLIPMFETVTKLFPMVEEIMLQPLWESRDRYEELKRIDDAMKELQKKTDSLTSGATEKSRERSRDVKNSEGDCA
SMILES,IC50 [µM],inhibition at 10 µM [%]
"O=c1[nH]c(SCc2nc3ccccc3o2)nc2c1cnn2C1CCOCC1 [Example 1, 6-((benzo[d]oxazol-2-ylmethyl)thio)-1-(tetrahydro-2H-pyran-4-yl)-1,5-dihydro-4H-pyrazolo[3,4-d]pyrimidin-4-one]",0.005,
"O=c1[nH]c(SCc2nc3ccccc3o2)nc2c1cnn2-c1ccccc1 [Example 2, 6-((benzo[d]oxazol-2-ylmethyl)thio)-1-phenyl-1,5-dihydro-4H-pyrazolo[3,4-d]pyrimidin-4-one]",0.049,
"Cc1ccc2oc(CSc3nc4c(cnn4-c4ccccc4)c(=O)[nH]3)nc2c1 [Example 3, 6-(((5-methylbenzo[d]oxazol-2-yl)methyl)thio)-1-phenyl-1,5-dihydro-4H-pyrazolo[3,4-d]pyrimidin-4-one]",0.081,
"O=c1[nH]c(SCc2nc3cc(F)ccc3o2)nc2c1cnn2-c1ccccc1 [Example 4, 6-(((5-fluorobenzo[d]oxazol-2-yl)methyl)thio)-1-phenyl-1,5-dihydro-4H-pyrazolo[3,4-d]pyrimidin-4-one]",0.083,
"Cc1ccc2nc(CSc3nc4c(cnn4-c4ccccc4)c(=O)[nH]3)oc2c1 [Example 5, 6-(((6-methylbenzo[d]oxazol-2-yl)methyl)thio)-1-phenyl-1,5-dihydro-4H-pyrazolol[3,4-d]pyrimidin-4-one]",0.049,
"O=c1[nH]c(SCc2nc3cc(Cl)ccc3o2)nc2c1cnn2-c1ccccc1 [Example 6, 6-(((5-chlorobenzo[d]oxazol-2-yl)methyl)thio)-1-phenyl-1,5-dihydro-4H-pyrazolo[3,4-d]pyrimidin-4-one]",0.19,
"O=c1[nH]c(SCc2nc3cc(Br)ccc3o2)nc2c1cnn2-c1ccccc1 [Example 7, 6-(((5-bromobenzo[d]oxazol-2-yl)methyl)thio)-1-phenyl-1,5-dihydro-4H-pyrazolo[3,4-d]pyrimidin-4-one]",0.1,
"O=c1[nH]c(SCc2nc3ccccc3o2)nc2c1cnn2C1CCC(F)(F)CC1 [Example 8, 6-((benzo[d]oxazol-2-ylmethyl)thio)-1-(4,4-difluorocyclohexyl)-1,5-dihydro-4H-pyrazolo[3,4-d]pyrimidin-4-one]",0.005,
"O=c1[nH]c(SCc2nc3ccccc3o2)nc2c1cnn2C1CCSCC1 [Example 9, 6-((benzo[d]oxazol-2-ylmethyl)thio)-1-(tetrahydro-2H-thiopyran-4-yl)-1,5-dihydro-4H-pyrazolo[3,4-d]pyrimidin-4-one]",0.006,
"O=c1[nH]c(SCc2nc3ccccc3o2)nc2c1cnn2C1CC1 [Example 10, 6-((benzo[d]oxazol-2-ylmethyl)thio)-1-cyclopropyl-1,5-dihydro-4H-pyrazolo[3,4-d]pyrimidin-4-one]",0.22,
"CC(C)n1ncc2c(=O)[nH]c(SCc3nc4ccccc4o3)nc21 [Example 11, 6-((benzo[d]oxazol-2-ylmethyl)thio)-1-isopropyl-1,5-dihydro-4H-pyrazolo[3,4-d]pyrimidin-4-one]",0.006,
"O=c1[nH]c(SCc2nc3ccccc3o2)nc2c1cnn2C1CCCCC1 [Example 12, 6-((benzo[d]oxazol-2-ylmethyl)thio)-1-cyclohexyl-1,5-dihydro-4H-pyrazolol[3,4-d]pyrimidin-4-one]",0.004,
"Cc1ccc2nc(CSc3nc4c(cnn4C4CCC(F)(F)CC4)c(=O)[nH]3)oc2c1 [Example 13, 6-(((6-methylbenzo[d]oxazol-2-yl)methyl)thio)-1-(4,4-difluorocyclohexyl)-1,5-dihydro-4H-pyrazolo[3,4-d]pyrimidin-4-one]",0.012,
"Cc1ccc2nc(CSc3nc4c(cnn4C4CCOCC4)c(=O)[nH]3)oc2c1 [Example 14, 6-(((6-methylbenzo[d]oxazol-2-yl)methyl)thio)-1-(tetrahydro-2H-pyran-4-yl)-1,5-dihydro-4H-pyrazolo[3,4-d]pyrimidin-4-one]",0.004,
"Cc1ccc2nc(CSc3nc4c(cnn4C4CCSCC4)c(=O)[nH]3)oc2c1 [Example 15, 6-(((6-methylbenzo[d]oxazol-2-yl)methyl)thio)-1-(tetrahydro-2H-thiopyran-4-yl)-1,5-dihydro-4H-pyrazolo[3,4-d]pyrimidin-4-one]",0.01,
"Cc1ccc2nc(CSc3nc4c(cnn4C4CCCCC4)c(=O)[nH]3)oc2c1 [Example 16, 6-(((6-methylbenzo[d]oxazol-2-yl)methyl)thio)-1-cyclohexyl-1,5-dihydro-4H-pyrazolo[3,4-d]pyrimidin-4-one]",0.006,

SMILES,IC50 [µM],inhibition at 10 µM [%]
"Cc1ccc2nc(CSc3nc4c(cnn4C4CC4)c(=O)[nH]3)oc2c1 [Example 17, 6-(((6-methylbenzo[d]oxazol-2-yl)methyl)thio)-1-cyclopropyl-1,5-dihydro-4H-pyrazolo[3,4-d]pyrimidin-4-one]",0.19,
"Cc1ccc2nc(CSc3nc4c(cnn4C(C)C)c(=O)[nH]3)oc2c1 [Example 18, 6-(((6-methylbenzo[d]oxazol-2-yl)methyl)thio)-1-isopropyl-1,5-dihydro-4H-pyrazolo[3,4-d]pyrimidin-4-one]",0.004,
"CC(Sc1nc2c(cnn2-c2ccccc2)c(=O)[nH]1)c1nc2ccccc2o1 (stereo not shown) [Example 19, 6-((1-(benzo[d]oxazol-2-yl)ethyl)thio)-1-phenyl-1,5-dihydro-4H-pyrazolo[3,4-d]pyrimidin-4-one]",0.028,
CC(Sc1nc2c(cnn2C2CCC(F)(F)CC2)c(=O)[nH]1)c1nc2ccccc2o1 (stereo not shown) [Example 20],0.006,
CC(Sc1nc2c(cnn2C2CCOCC2)c(=O)[nH]1)c1nc2ccccc2o1 (stereo not shown) [Example 21],0.003,
"Cc1ccc2nc(C(C)Sc3nc4c(cnn4C4CCC(F)(F)CC4)c(=O)[nH]3)oc2c1 (stereo not shown) [Example 22, 1-(4,4-difluorocyclohexyl)-6-((1-(6-methylbenzo[d]oxazol-2-yl)ethyl)thio)-1,5-dihydro-4H-pyrazolo[3,4-d]pyrimidin-4-one]",0.006,
"Cc1ccc2nc(C(C)Sc3nc4c(cnn4C4CCOCC4)c(=O)[nH]3)oc2c1 (stereo not shown) [Example 23, 6-((1-(6-methylbenzo[d]oxazol-2-yl)ethyl)thio)-1-(tetrahydro-2H-pyran-4-yl)-1,5-dihydro-4H-pyrazolo[3,4-d]pyrimidin-4-one]",0.002,
"Cc1ccc2nc(C(C)Sc3nc4c(cnn4C4CCSCC4)c(=O)[nH]3)oc2c1 (stereo not shown) [Example 24, 6-((1-(6-methylbenzo[d]oxazol-2-yl)ethyl)thio)-1-(tetrahydro-2H-thiopyran-4-yl)-1,5-dihydro-4H-pyrazolo[3,4-d]pyrimidin-4-one]",0.005,
"O=c1[nH]c(SCc2nc3cc(-c4ccccc4)ccc3o2)nc2c1cnn2-c1ccccc1 [Example 25, 1-phenyl-6-(((5-phenylbenzo[d]oxazol-2-yl)methyl)thio)-1,5-dihydro-4H-pyrazolo[3,4-d]pyrimidin-4-one]",,10.3
"Cc1cccc2oc(CSc3nc4c(cnn4-c4ccccc4)c(=O)[nH]3)nc12 [Example 26, 6-(((4-methylbenzo[d]oxazol-2-yl)methyl)thio)-1-phenyl-1,5-dihydro-4H-pyrazole[3,4-d]pyrimidin-4-one]",0.14,
"CC(C)(C)c1ccc2oc(CSc3nc4c(cnn4-c4ccccc4)c(=O)[nH]3)nc2c1 [Example 27, 6-(((5-(tert-butyl)benzo[d]oxazol-2-yl)methyl)thio)-1-phenyl-1,5-dihydro-4H-pyrazolo[3,4-d]pyrimidin-4-one]",6.63,
"O=c1[nH]c(SCc2nc3ccc([N+](=O)[O-])cc3o2)nc2c1cnn2-c1ccccc1 [Example 28, 6-(((6-nitrobenzo[d]oxazol-2-yl)methyl)thio)-1-phenyl-1,5-dihydro-4H-pyrazolol[3,4-d]pyrimidin-4-one]",,51.5
"O=c1[nH]c(SCc2nc3cc([N+](=O)[O-])ccc3o2)nc2c1cnn2-c1ccccc1 [Example 29, 6-(((5-nitrobenzo[d]oxazol-2-yl)methyl)thio)-1-phenyl-1,5-dihydro-4H-pyrazolo[3,4-d]pyrimidin-4-one]",2.4,
"O=c1[nH]c(SCc2nc3c([N+](=O)[O-])cccc3o2)nc2c1cnn2-c1ccccc1 [Example 30, 6-(((4-nitrobenzo[d]oxazol-2-yl)methyl)thio)-1-phenyl-1,5-dihydro-4H-pyrazolo[3,4-d]pyrimidin-4-one]",1.72,
O=c1[nH]c(SCc2nc3cc(Cl)c([N+](=O)[O-])cc3o2)nc2c1cnn2-c1ccccc1 [Example 31],,38.9
